Test results from patent US12403144B2, “HECT E3 ligase inhibitors and uses thereof” (IFOM FONDAZIONE ISTITUTO FIRC DI ONCOLOGIA MOLECOLARE, priority 2019, dated 2025).
Counter-ions that a name gives are not always drawn.

What follows are compounds tested against T1, untagged HECT of NEDD4 wild-type (WT) (E3 ligase) (Homo sapiens, UniProt P46934) (assay: In vitro ubiquitination assay TR-FRET based (self-ubiquitination of NEDD4)). Conditions: at 11 μM; pre-incubated for 1 hour; AUC of 120 minutes kinetic; read-out: percentages of inhibition (NEDD4).
T1 construct: untagged HECT of NEDD4 wild-type (WT) (E3 ligase); made in house
T1 sequence (P46934 519-900 isoform P46934-4 limits assumed): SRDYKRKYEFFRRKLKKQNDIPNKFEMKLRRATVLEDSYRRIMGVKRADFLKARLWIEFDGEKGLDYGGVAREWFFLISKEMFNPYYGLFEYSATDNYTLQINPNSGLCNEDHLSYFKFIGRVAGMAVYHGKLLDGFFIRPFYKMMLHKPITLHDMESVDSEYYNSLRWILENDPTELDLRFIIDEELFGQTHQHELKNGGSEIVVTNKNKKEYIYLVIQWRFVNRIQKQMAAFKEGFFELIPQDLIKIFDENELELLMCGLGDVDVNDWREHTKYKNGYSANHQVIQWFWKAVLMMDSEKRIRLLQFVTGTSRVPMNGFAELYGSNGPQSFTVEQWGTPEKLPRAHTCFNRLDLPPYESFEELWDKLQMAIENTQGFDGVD
Type: biochemical
Source text: FIG. 1: TR-FRET kinetic assay performed with compound 12. […] Reactions were initiated with the addition of ATP. As labeled ubiquitin molecules become incorporated into chains they come into close proximity, resulting in energy transfer and increased signal to background detection. The activity of the enzyme is continuously and real time detected and it is expressed as % of signal/background during the time.
In order to quantitatively measure the self-ubiquitination process of the E3 HECT ligase NEDD4 the inventors employed a TR-FRET based assay. TR-FRET technology exploits the long-lasting emission of lanthanide fluorescence to interpose a short time-delay between FRET donor excitation and emission. This phenomenon enables to isolate real fluorescent signals from short-lived background emissions, thus reducing possible interference from compounds.
In the present study, elongation of the ubiqutin chain by NEDD4 is measured by adding bacterially expressed E1, His-tagged UBE2D3 (E2) and untagged HECT of NEDD4 wild-type (WT) (E3 ligase) (named in FIG. 1 as WT) enzymes to a mixture of Eu-cryptate ubiquitin, Cy5-ubiquitin and wild-type ubiquitin, combined in a ratio optimized for TR-FRET based conjugation (100×TRF-Ubiquitin Mix, SBB-TR0051). […] Bacterially expressed E1, His-tagged UBE2D3 (E2), untagged HECT NEDD4 (E3 ligase) WT and NEDD4 C/A enzymes were produced and purified as reported in E. Maspero et al. Methods Mol Biol. 1449:153-60 (2016).
Enzymatic incorporation of the labeled TRF-Ubiquitin mix into chains leads to an increase in fluorescence emission at 665 nm (emission of the acceptor Cy5-Ubiquitin, Emacceptor) and decrease at emission wavelength 620 nm (emission of the donor Eu-cryptate Ubiquitin, Emdonor).
The assay was performed in a 384-well plate format (Optiplate, Perkin Elmer, #6007290) on an automated liquid-handler (Hamilton STAR, Hamilton Robotics, Switzerland).
All compounds were dissolved in 100% DMSO and serially diluted in 96-well plates (from 100 μM to 0.005 μM).
Briefly, all reagents were thawed and kept on ice. A master mix containing E1, E2, E3 and TRF-Ubiquitin Mix (SBB-TR0051) diluted in the assay buffer (Tris-HCl pH 7.6 25 mM, NaCl 100 mM, MgCl2 5 mM and Tween 0.01%) is prepared and 50 μl/well is dispensed in a 384 well plate. 3 μl of compounds dissolved in DMSO in the above-indicated concentration range were added and pre-incubated for 1 hour. Final E1, E2 and E3 concentrations in the assay buffer (Tris-HCl pH 7.6 25 mM, NaCl 100 mM, MgCl2 5 mM and Tween 0.01%) were 30, 350 and 50 nanomolars, respectively. The reaction was initiated with the addition of ATP (22 μl of 2 mM ATP, JenaBioscience, NU-1010) and was allowed to proceed for 120 minutes, measuring fluorescence emission at 665 nm and 620 nm in real-time on an EnSpire microplate reader (Perkin Elmer).
Kinetic raw data were analyzed by Area Under the Curve (AUC) method using Prism GraphPad software.
% signal/background corresponds to the following equation: (Experimental signal−Background signal)/Background signal×100%
Experimental signal corresponds to the signal obtained by the enzymatic reaction in presence of the vehicle (DMSO) and/or the different compound concentrations. Background signal corresponds to the signal obtained by the enzymatic reaction in absence of ATP.
The relative potency of the compounds was evaluated by dose-response curves following the enzymatic reaction of HECT NEDD4 WT in real time for 120 minutes.
Percentage of inhibition is then determined by the equation: % inhibition=100×[1−(X)/(MAX)],
where MAX correspond to AUC of the vehicle (DMSO) treated enzyme, and X corresponds to the AUC of the compound treated enzyme.

Row | SMILES | inhibition at 11 µM [%]
1 | CCOC(=O)/C=C/CNCCCN1c2cc(Cl)ccc2CCc2cnn(C)c21 [Compound 30, Ethyl (E)-4-{[3-(8-chloro-1-methyl-4,5-dihydropyrazolo-[3,4-b][1]-benzazepin-10(1H)-yl)propyl]amino}but-2-enoate maleate] | > 50
2 | CCOC(=O)/C=C/CNCCCN1c2cc(Cl)ccc2CCc2cn(C)nc21 [Compound 31] | < 30
3 | CCOC(=O)/C=C/CNCCCN1c2cc(Cl)ccc2CCc2cncnc21 [Compound 32, Ethyl (E)-4-{[3-(9-chloro-5,6-dihydro-11H-pyrimido[4,5-b][1]-benzazepin-11-yl)propyl]amino}but-2-enoate fumarate] | > 50
4 | CCOC(=O)/C=C/CNCCC(=O)N1c2ccccc2CCc2ccc(Cl)cc21 [Compound 33, Ethyl (E)-4-{[3-(3-chloro-10,11-dihydro-5H-dibenzo[b,f]azepin-5-yl)-3-oxo-propyl]amino}but-2-enoate maleate] | < 30
5 | CCOC(=O)/C=C/CNCC(O)CN1c2ccccc2CCc2ccc(Cl)cc21 (centres unmarked) [Compound 34, Ethyl (E)-4-{[2-hydroxy-3-(3-chloro-10,11-dihydro-5H-dibenzo[b,f]azepin-5-yl)]propylamino} but-2-enoate] | > 50
6 | CCOC(=O)/C=C/CNCCCC(=O)N1c2ccccc2CCc2ccc(Cl)cc21 [Compound 38, Ethyl (E)-4-{[4-(3-chloro-10,11-dihydro-5H-dibenzo[b,f]azepin-5-yl)-4-oxo-butyl]amino}but-2-enoate maleate] | > 50
7 | CCOC(=O)/C=C/CNCCCCN1c2ccc(O)cc2CCc2ccc(Cl)cc21 [Compound 39, Ethyl (E)-4-[4-(7-Chloro-2-hydroxy-10,11-dihydro-dibenzo[b,f]azepin-5-yl)-butylamino]-but-2-enoate maleate] | > 50
8 | CCOC(=O)/C=C/CNCCCCN1c2ccccc2CCc2cc(O)c(Cl)cc21 [Compound 40, Ethyl (E)-4-[4-(3-Chloro-2-hydroxy-10,11-dihydro-dibenzo[b,f]azepin-5-yl)-butylamino]-but-2-enoate maleate] | > 50
9 | CCOC(=O)/C=C/CNCCCCN1c2cc(Cl)ccc2CCc2cnn(C)c21 [Compound 43, Ethyl (E)-4-{[4-(8-chloro-1-methyl-4,5-dihydropyrazolo-[3,4-b][1]-benzazepin-10(1H)-yl)butyl]amino}but-2-enoate maleate] | > 50
10 | CCOC(=O)/C=C/CNCCCCN1c2ccccc2C(=O)N(CCc2ccccc2)c2ccc(Cl)cc21 [Compound 44, Ethyl (E)-4-{[4-(7-chloro-10-(2-phenylethyl)-11-oxo-10,11-dihydro-5H-dibenzo[b,e][1,4]diazepin-5-yl)butyl]amino}but-2-enoate maleate] | > 50
11 | CN(C/C=C/C(=O)CCc1ccccc1)CCCCN1c2ccccc2CCc2ccc(Cl)cc21 [Compound 53, (E)-6-[4-(3-chloro-10,11-dihydro-5H-dibenzo[b,f]azepin-5-yl)butyl-methyl-amino]-1-phenyl-hex-4-en-3-one maleate] | > 50

More lines, now with the values ahead:

Row | inhibition at 11 µM [%] | SMILES
12 | > 50 | CCOC(=O)/C=C/CNCCCN1c2ccccc2C(=O)N(C)c2ccc(Cl)cc21 [Compound 28, Ethyl (E)-4-{[3-(7-chloro-10-methyl-11-oxo-10,11-dihydro-5H-dibenzo[b,e][1,4]diazepin-5-yl)propyl]amino}but-2-enoate maleate]
13 | > 50 | CCOC(=O)/C=C/CNCCCN1c2cc(Cl)ccc2COc2ccccc21 [Compound 35, Ethyl (E)-4-{3-[3-chlorodibenzo[b,e][1,4]oxazepin-5(11H)-yl]propylamino}but-2-enoate maleate]
14 | > 50 | CCOC(=O)/C=C/CNCCCCN1c2cc(Cl)ccc2COc2ccccc21 [Compound 36, Ethyl (E)-4-{4-[3-chlorodibenzo[b,e][1,4]oxazepin-5(11H)-yl]butylamino}but-2-enoate maleate]
15 | > 50 | CCOC(=O)/C=C/CNCCCCN1c2ccccc2COc2ccc(Cl)cc21 [Compound 37, Ethyl (E)-4-{4-[7-chlorodibenzo[b,e][1,4]oxazepin-5(11H)-yl]butylamino}but-2-enoate maleate]
16 | > 50 | CCOC(=O)/C=C/CNCCCCN1c2cc(Cl)ccc2NC(=O)c2ccccc21 [Compound 41, Ethyl (E)-4-{[4-(7-chloro-11-oxo-10,11-dihydro-5H-dibenzo[b,e][1,4]diazepin-5-yl)butyl]amino}but-2-enoate maleate]
17 | > 50 | CCOC(=O)/C=C/CNCCCCN1c2cc(Cl)ccc2C(=O)N(CCO)c2ccccc21 [Compound 46, Ethyl (E)-4-({4-[3-chloro-10-(2-hydroxyethyl)-11-oxo-10,11-dihydro-5H-dibenzo[b,e][1,4]diazepin-5-yl]butyl}amino)but-2-enoate maleate]
18 | > 50 | CCOC(=O)/C=C/CNCCCN1c2cc(Cl)ccc2C(=O)N(CCO)c2ccccc21 [Compound 47, Ethyl (E)-4-({3-[3-chloro-10-(2-hydroxyethyl)-11-oxo-10,11-dihydro-5H-dibenzo[b,e][1,4]diazepin-5-yl]propyl}amino)but-2-enoate maleate]
19 | > 50 | CCOC(=O)/C=C/CNCCCCN1c2cc(Cl)ccc2C(=O)N(CCCO)c2ccccc21 [Compound 48, Ethyl (E)-4-({4-[3-chloro-10-(3-hydroxypropyl)-11-oxo-10,11-dihydro-5H-dibenzo[b,e][1,4]diazepin-5-yl]butyl}amino)but-2-enoate maleate]
20 | > 50 | CCOC(=O)/C=C/CNCCCN1c2cc(Cl)ccc2C(=O)N(CCCO)c2ccccc21 [Compound 49, Ethyl (E)-4-({3-[3-chloro-10-(3-hydroxypropyl)-11-oxo-10,11-dihydro-5H-dibenzo[b,e][1,4]diazepin-5-yl]propyl}amino)but-2-enoate maleate]
21 | > 50 | CCOC(=O)/C=C/CNCCCCN1c2ccccc2C(=O)N(CCO)c2ccc(Cl)cc21 [Compound 50, Ethyl (E)-4-({4-[7-chloro-10-(2-hydroxyethyl)-11-oxo-10,11-dihydro-5H-dibenzo[b,e][1,4]diazepin-5-yl]butyl}amino)but-2-enoate maleate]
22 | > 50 | CCOC(=O)/C=C/CNCCCCN1c2ccccc2C(=O)N(CCCO)c2ccc(Cl)cc21 [Compound 51, Ethyl (E)-4-({4-[7-chloro-10-(3-hydroxypropyl)-11-oxo-10,11-dihydro-5H-dibenzo[b,e][1,4]diazepin-5-yl]butyl}amino)but-2-enoate maleate]
23 | 30 to 50 | CCOC(=O)/C=C/CNCCCN1c2ccccc2C(=O)N(CCCO)c2ccc(Cl)cc21 [Compound 52, Ethyl (E)-4-({3-[7-chloro-10-(3-hydroxypropyl)-11-oxo-10,11-dihydro-5H-dibenzo[b,e][1,4]diazepin-5-yl]propyl}amino)but-2-enoate maleate]
